Data taken from ChEMBL document CHEMBL3580595, “Design, synthesis and biological evaluation of novel trimethylpyrazine-2-carbonyloxy-cinnamic acids as potent cardiovascular agents” (Medchemcomm, 2014).

Legend:
[1] = Anti-platelet activity in rabbit platelet-rich plasma assessed as inhibition of ADP-induced platelet aggregation at 100 uM incubated for 5 mins at 37 degC by aggregometry; assay type: functional; conditions: Oryctolagus cuniculus
[2] = Anti-platelet activity in rabbit platelet-rich plasma assessed as inhibition of ADP-induced platelet aggregation at 12.5 uM incubated for 5 mins at 37 degC by aggregometry; assay type: functional; conditions: Oryctolagus cuniculus
[3] = Cytoprotective activity against H2O2-induced cytotoxicity in human EAhy926 cells at 100 uM pre-incubated for 24 hrs before H2O2 challenge for 12 hrs by MTT assay; assay type: functional, EA.hy 926
[4] = Anti-platelet activity in rabbit platelet-rich plasma assessed as inhibition of ADP-induced platelet aggregation at 25 uM incubated for 5 mins at 37 degC by aggregometry; assay type: functional; conditions: Oryctolagus cuniculus
[5] = Anti-platelet activity in rabbit platelet-rich plasma assessed as inhibition of ADP-induced platelet aggregation incubated for 5 mins at 37 degC by aggregometry; assay type: functional; conditions: Oryctolagus cuniculus
[6] = Anti-platelet activity in rabbit platelet-rich plasma assessed as inhibition of ADP-induced platelet aggregation at 50 uM incubated for 5 mins at 37 degC by aggregometry; assay type: functional; conditions: Oryctolagus cuniculus
[7] = Cytoprotective activity against H2O2-induced cytotoxicity in human EAhy926 cells at 12.5 uM pre-incubated for 24 hrs before H2O2 challenge for 12 hrs by MTT assay; assay type: functional, EA.hy 926
[8] = Cytoprotective activity against H2O2-induced cytotoxicity in human EAhy926 cells at 50 uM pre-incubated for 24 hrs before H2O2 challenge for 12 hrs by MTT assay; assay type: functional, EA.hy 926
[9] = Cytoprotective activity against H2O2-induced cytotoxicity in human EAhy926 cells pre-incubated for 24 hrs before H2O2 challenge for 12 hrs by MTT assay; assay type: functional, cell-based; conditions: EA.hy 926
[10] = Cytoprotective activity against H2O2-induced cytotoxicity in human EAhy926 cells at 25 uM pre-incubated for 24 hrs before H2O2 challenge for 12 hrs by MTT assay; assay type: functional, EA.hy 926

SMILES | IC50 [5] | inhibition at 100 µM [1] | inhibition at 12.5 µM [2] | Activity [3] | inhibition at 25 µM [4] | inhibition at 50 µM [6] | Activity [7] | Activity [8] | EC50 [9] | Activity [10]
CCOC(=O)/C=C/c1ccc(OC)cc1OC(=O)c1nc(C)c(C)nc1C | 28.2 µM | 47% | 84.2% | 39.9% | 32.6% | 18.7% | -57.6% | 20.7% | 138 µM | 16.9%
CCOC(=O)/C=C/c1ccc(O)c(OC)c1 [ETHYL FERULATE] | 193 µM | 26.5% | 4% | – | 11.5% | 17.9% | – | – | – | –
CCOC(=O)/C=C/c1cc(Cl)ccc1OC(=O)c1nc(C)c(C)nc1C | 67.1 µM | 61.7% | 26.3% | 11% | 36.9% | 44.4% | 64.9% | 33.7% | 36.1 µM | 62.5%
Cc1nc(C)c(C(=O)Oc2ccccc2/C=C/C(=O)O)nc1C | 9.6 µM | 17.2% | 32.9% | 80.1% | 54.8% | 53.8% | 45.7% | 64.9% | 36.7 µM | 61.8%
CCOC(=O)/C=C/c1cc(OC)c(O)c(OC)c1 | – | – | – | 69.1% | – | – | 4.9% | 32% | 67.2 µM | 24.9%
CCOC(=O)/C=C/c1ccc(O)c(O)c1 [ETHYL CAFFEATE] | – | – | – | 146.9% | – | – | 80.4% | 134.8% | 11.6 µM | 88.4%
O=C(O)CCCCC1CCSS1 (stereo not drawn) [LIPOIC ACID, ALPHA] | – | – | – | 58.1% | – | – | 30.5% | 48.7% | 68 µM | -12.3%
O=C(O)/C=C/c1ccc(O)cc1 [COUMARIC ACID] | 74.8 µM | 54.5% | 17.2% | – | 29.9% | 53.2% | – | – | – | –
Cc1nc(C)c(C)nc1C [LIGUSTRAZINE] | 265 µM | 19.6% | 3.4% | 40.9% | 8.6% | 15.3% | 11.4% | 22.1% | 83.4 µM | 13.6%
CCOC(=O)/C=C/c1cc(OC)c(OC(=O)c2nc(C)c(C)nc2C)c(OC)c1 | 37.5 µM | 59.5% | 44% | -47% | 47.2% | 55.9% | 96.6% | -13.6% | 21.4 µM | 20.9%
CCOC(=O)/C=C/c1ccc(O)cc1 [ETHYL P-COUMARATE] | 130 µM | 37.9% | 5.8% | – | 16.4% | 25.5% | – | – | – | –
COC(=O)[C@H](c1ccccc1Cl)N1CCc2sccc2C1 [CLOPIDOGREL] | 7.6 µM | 94.5% | 86.9% | – | 77.6% | 92.3% | – | – | – | –
COc1ccc(/C=C/C(=O)O)cc1O [ISOFERULIC ACID] | – | – | – | 81.9% | – | – | 34.9% | 62.9% | 29.3 µM | 36.8%
O=C(O)/C=C/c1ccc(O)c(O)c1 [CAFFEIC ACID] | – | – | – | 155.6% | – | – | 16.7% | 149.5% | 12.6 µM | 108.5%
O=C(O)/C=C/c1ccc(Cn2ccnc2)cc1 [OZAGREL] | 144 µM | 36.8% | 6.4% | – | 4.8% | 25% | – | – | – | –
O=C(O)/C=C/c1ccccc1O [O-COUMARIC ACID] | 116 µM | 42.9% | 10.8% | – | 21.4% | 30.5% | – | – | – | –

Further lines, with some results ahead:

IC50 [5] | SMILES | inhibition at 100 µM [1] | inhibition at 12.5 µM [2] | Activity [3] | inhibition at 25 µM [4] | inhibition at 50 µM [6] | Activity [7] | Activity [8] | EC50 [9] | Activity [10]
49 µM | COc1ccc(OC(=O)c2nc(C)c(C)nc2C)c(/C=C/C(=O)O)c1 | 59.8% | 43.4% | 79.2% | 46.5% | 48.8% | 21.7% | 62.9% | 48.6 µM | 45%
26.4 µM | Cc1nc(C)c(C(=O)Oc2cccc(/C=C/C(=O)O)c2)nc1C | 8.2% | 73.4% | 103% | 38.5% | 28% | 61.6% | 75.3% | 24 µM | 64.3%
37.8 µM | Cc1nc(C)c(C(=O)Oc2ccc(/C=C/C(=O)O)cc2)nc1C | 25.3% | 64.3% | 93.2% | 53.3% | 41.7% | 34.2% | 74.1% | 38 µM | 46.6%
143 µM | CCOC(=O)/C=C/c1ccc(OC)c(OC(=O)c2nc(C)c(C)nc2C)c1 | 39.7% | 22.3% | 117% | 20.6% | 32.2% | 26.4% | 89% | 29.9 µM | 60.1%
84.6 µM | Cc1nc(C)c(C(=O)Oc2ccc(/C=C/C(=O)O)cc2O)nc1C | 53.6% | 32.1% | 601.4% | 25% | 44.5% | 92.8% | 284.8% | 2.2 µM | 271.1%
134 µM | COc1ccc(/C=C/C(=O)O)c(OC(=O)c2nc(C)c(C)nc2C)c1 | 40.9% | 16.5% | 18% | 35.1% | 34.1% | 39.7% | 31.6% | 115 µM | -52.1%
41.8 µM | COc1ccc(/C=C/C(=O)O)cc1OC(=O)c1nc(C)c(C)nc1C | 75.2% | 21.6% | 216.3% | 53.5% | 59.8% | 41.3% | 159.6% | 8.8 µM | 128.1%
